Data taken from patent US20240360178A1, “MACROCYCLIC IMMUNOMODULATORS” (Bristol-Myers Squibb Company, priority 2021, published 2024).
Positions of bridges follow the written chain, without caps; N, C: chain ends. Non-standard residues stand in square brackets, D forms with d. Residues, ends and D or L forms follow the SMILES beside them. ξ: configuration not given here. *: point of attachment. Phe(4-COOH) = N[C@@H](Cc1ccc(C(=O)O)cc1)C(=O)O; Bip = N[C@@H](Cc1ccc(-c2ccccc2)cc1)C(=O)O; Phe(3-Me) = Cc1cccc(C[C@H](N)C(=O)O)c1; 1Nal = N[C@@H](Cc1cccc2ccccc12)C(=O)O; Val(3-OH) = CC(C)(O)[C@H](N)C(=O)O; Ala(cPr) = N[C@@H](CC1CC1)C(=O)O; NMeF = CN[C@@H](Cc1ccccc1)C(=O)O; 3Pal = N[C@@H](Cc1cccnc1)C(=O)O; 4Pal = N[C@@H](Cc1ccncc1)C(=O)O; Cha = N[C@@H](CC1CCCCC1)C(=O)O; dPip = O=C(O)[C@H]1CCCCN1; Carboxymethyl = O=C(O)C*; NMeA = CN[C@@H](C)C(=O)O; Orn = NCCC[C@H](N)C(=O)O; Dab = NCC[C@H](N)C(=O)O; ξV = CC(C)C(N)C(=O)O; Sar = CNCC(=O)O

Biological target: T1, human PD-1 (Jurkat-PD-1 cells) / PE-labeled human PD-L1-Ig (Homo sapiens, UniProt Q15116)
T1 construct: expressed in transfected cells; host or cells: Jurkat cell line over-expressing human PD-1
T1 sequence (Q15116 25-288): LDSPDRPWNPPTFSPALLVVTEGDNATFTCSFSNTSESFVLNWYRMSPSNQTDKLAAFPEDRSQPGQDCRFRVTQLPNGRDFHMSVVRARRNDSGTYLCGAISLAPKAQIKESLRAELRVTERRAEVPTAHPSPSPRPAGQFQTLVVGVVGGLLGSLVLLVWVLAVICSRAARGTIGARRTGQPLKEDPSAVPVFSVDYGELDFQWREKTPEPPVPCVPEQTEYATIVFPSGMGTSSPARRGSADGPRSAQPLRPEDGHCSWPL
Assay: Jurkat-PD-1 Cell Binding High-Content Screening Assay (CBA); Jurkat hPD1-PDL1 assay
Conditions: Jurkat cell line over-expressing human PD-1; PE-labeled PD-L1-Ig 20 nM final; compound incubated 2 hours at 37° C.; read-out: Jurkat HPD1-PDL1 IC50
Outline: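 Binding of phycoerythrin-conjugated PD-L1-Ig (20 nM final) to PD-1-overexpressing Jurkat cells was read by high-content imaging. Cells in DMEM/10% FCS were exposed to compound for 2 hours at 37° C before labeled ligand was added.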

| SMILES | IC50 [nM] |
| --- | --- |
| CC(C)C[C@@H]1NC(=O)[C@H](CCCNC(=N)N)NC(=O)[C@H](Cc2ccccc2)N(C)C(=O)[C@H](C)N(C)C(=O)[C@H](CCCNC(=N)N)NC(=O)[C@H](Cc2ccc(-c3ccccc3)cc2)NC(=O)[C@H](C(C)C)NC(=O)[C@H](Cc2c[nH]c3ccccc23)NC(=O)[C@H](CC(=O)O)NC(=O)[C@H](Cc2ccc(O)cc2)NC(=O)[C@H](Cc2cccnc2)NC(=O)CSC[C@@H](C(=O)N[C@@H](C)C(N)=O)NC(=O)[C@H]([C@@H](C)O)NC(=O)[C@H](C(C)C)NC1=O [Example 1348] ({CH2CO}-[3Pal]YDWV[Bip]R[NMeA][NMeF]RLVTCA-NH2; thioether N-14) | 220 |
| CC(C)C1NC(=O)[C@H](Cc2c[nH]c3ccccc23)NC(=O)[C@H](CC(=O)O)NC(=O)[C@H](Cc2ccncc2)NC(=O)[C@H](Cc2ccc(OCC(=O)O)cc2)NC(=O)CSC[C@@H](C(=O)N[C@@H](C)C(N)=O)NC(=O)[C@H]([C@@H](C)O)NC(=O)[C@H](C(C)C)NC(=O)[C@H](CC2CCCCC2)NC(=O)[C@H](CCN)NC(=O)[C@H](Cc2ccccc2)N(C)C(=O)[C@H](CCCN)NC(=O)[C@H](CCC(=O)O)NC(=O)[C@H](Cc2ccc(-c3ccccc3)cc2)NC1=O (stereo partly drawn) [Example 1440] ({CH2CO}-Y(Carboxymethyl)[4Pal]DW[ξV][Bip]E[Orn][NMeF][Dab][Cha]VTCA-NH2; thioether N-14) | 70 |
| CC(C)C[C@@H]1NC(=O)[C@H](CCCNC(=N)N)NC(=O)[C@H](Cc2ccccc2)N(C)C(=O)[C@H](C)N(C)C(=O)[C@H](CCCNC(=N)N)NC(=O)[C@H](Cc2ccc(-c3ccccc3)cc2)NC(=O)[C@H](C(C)C)NC(=O)[C@H](Cc2c[nH]c3ccccc23)NC(=O)[C@H](CC(=O)O)NC(=O)[C@H](Cc2ccc(O)cc2)NC(=O)[C@H](CC(N)=O)NC(=O)CSC[C@@H](C(=O)NCC(N)=O)NC(=O)[C@H](CO)NC(=O)[C@H](C(C)C)NC1=O [Example 1032] ({CH2CO}-NYDWV[Bip]R[NMeA][NMeF]RLVSCG-NH2; thioether N-14) | 60 |
| CC(C)C[C@@H]1NC(=O)[C@H](Cc2c[nH]c3ccccc23)NC(=O)[C@H](CC(=O)O)NC(=O)[C@H](Cc2ccc(O)cc2)NC(=O)[C@H](Cc2ccccc2)NC(=O)CSC[C@@H](C(=O)NCC(N)=O)NC(=O)[C@H]([C@@H](C)O)NC(=O)[C@H](C(C)C)NC(=O)[C@H](CC(C)C)NC(=O)[C@H](CCN)NC(=O)[C@H]2CCCN2C(=O)[C@H](C)N(C)C(=O)[C@H](C(C)C)NC(=O)[C@H](Cc2ccc(-c3ccccc3)cc2)NC1=O [Example 1396] ({CH2CO}-FYDWL[Bip]V[NMeA][dP][Dab]LVTCG-NH2; thioether N-14) | 70 |
| CC(C)C[C@@H]1NC(=O)[C@H](CCCNC(=N)N)NC(=O)[C@H](Cc2ccccc2)N(C)C(=O)[C@H](C)N(C)C(=O)[C@H](CCCNC(=N)N)NC(=O)[C@H](Cc2ccc(-c3ccccc3)cc2)NC(=O)[C@H](C(C)C)NC(=O)[C@H](Cc2c[nH]c3ccccc23)NC(=O)[C@H](CC(=O)O)NC(=O)[C@H](Cc2ccc(O)cc2)NC(=O)[C@H](CC(N)=O)NC(=O)CSC[C@@H](C(=O)NCC(N)=O)NC(=O)[C@H]([C@@H](C)O)NC(=O)[C@H](C(C)C)NC1=O [Example 1310] ({CH2CO}-NYDWV[Bip]R[NMeA][NMeF]RLVTCG-NH2; thioether N-14) | 340 |
| CC(C)C[C@@H]1NC(=O)[C@H](Cc2c[nH]c3ccccc23)NC(=O)[C@H](CC(=O)O)NC(=O)[C@H](Cc2ccc(O)cc2)NC(=O)[C@H](Cc2ccccc2)NC(=O)CSC[C@@H](C(=O)N[C@@H](C)C(N)=O)NC(=O)[C@H](CO)NC(=O)[C@H](C(C)C)NC(=O)[C@H](CC(C)C)NC(=O)[C@H](CC(N)=O)NC(=O)[C@H]2CCCCN2C(=O)[C@H](C)N(C)C(=O)[C@H](C(C)C)NC(=O)[C@H](Cc2ccc(-c3ccccc3)cc2)NC1=O [Example 1038] ({CH2CO}-FYDWL[Bip]V[NMeA][dPip]NLVSCA-NH2; thioether N-14) | 70 |
| CC(C)C[C@@H]1NC(=O)[C@H](Cc2cccc3ccccc23)NC(=O)[C@H](CC(=O)O)NC(=O)[C@H](Cc2ccc(O)cc2)NC(=O)[C@H](Cc2ccccc2)NC(=O)CSC[C@@H](C(=O)N[C@@H](C)C(N)=O)NC(=O)[C@H](CO)NC(=O)[C@H](C(C)C)NC(=O)[C@H](CC(C)C)NC(=O)[C@H](CC(N)=O)NC(=O)CN(C)C(=O)[C@H](C)N(C)C(=O)[C@H](C(C)C)NC(=O)[C@H](Cc2ccc(-c3ccccc3)cc2)NC1=O [Example 1116] ({CH2CO}-FYD[1Nal]L[Bip]V[NMeA][Sar]NLVSCA-NH2; thioether N-14) | 400 |
| CC(C)C[C@@H]1NC(=O)[C@H](Cc2c[nH]c3ccccc23)NC(=O)[C@H](CC(=O)O)NC(=O)[C@H](Cc2ccc(O)cc2)NC(=O)[C@H](Cc2ccccc2)NC(=O)CSC[C@@H](C(=O)N[C@@H](C)C(N)=O)NC(=O)[C@H](CO)NC(=O)[C@H](C(C)C)NC(=O)[C@H](CC(C)C)NC(=O)[C@H](CC(N)=O)NC(=O)[C@H](Cc2ccccc2)N(C)C(=O)[C@H](C)N(C)C(=O)[C@H](CCCNC(=N)N)NC(=O)[C@H](Cc2ccc(-c3ccccc3)cc2)NC1=O [Example 1095] ({CH2CO}-FYDWL[Bip]R[NMeA][NMeF]NLVSCA-NH2; thioether N-14) | 280 |
| CC(C)C[C@@H]1NC(=O)[C@H](CC(N)=O)NC(=O)CN(C)C(=O)[C@H](C)N(C)C(=O)[C@H](C(C)C)NC(=O)[C@H](Cc2ccc(-c3ccccc3)cc2)NC(=O)[C@H](CC2CC2)NC(=O)[C@H](Cc2c[nH]c3ccccc23)NC(=O)[C@H](CC(=O)O)NC(=O)[C@H](Cc2ccc(O)cc2)NC(=O)[C@H](Cc2ccccc2)NC(=O)CSC[C@@H](C(=O)N[C@@H](C)C(N)=O)NC(=O)[C@H](CO)NC(=O)[C@H](C(C)C)NC1=O [Example 1155] ({CH2CO}-FYDW[Ala(cPr)][Bip]V[NMeA][Sar]NLVSCA-NH2; thioether N-14) | 810 |
| CC(C)C[C@@H]1NC(=O)[C@H](Cc2c[nH]c3ccccc23)NC(=O)[C@H](CC(=O)O)NC(=O)[C@H](Cc2ccc(OCC(=O)O)cc2)NC(=O)[C@H](Cc2ccncc2)NC(=O)CSC[C@@H](C(=O)N[C@@H](CCN)C(N)=O)NC(=O)[C@H](CO)NC(=O)[C@H](C(C)(C)O)NC(=O)[C@H](CC2CCCCC2)NC(=O)[C@H](CCN)NC(=O)[C@H]2CCCN2C(=O)[C@H](C)N(C)C(=O)[C@H](C(C)C)NC(=O)[C@H](Cc2ccc(-c3ccccc3)cc2)NC1=O [Example 1185] ({CH2CO}-[4Pal]Y(Carboxymethyl)DWL[Bip]V[NMeA][dP][Dab][Cha][Val(3-OH)]SC[Dab]-NH2; thioether N-14) | 30 |
| Cc1cccc(C[C@@H]2NC(=O)[C@H](CC(=O)O)NC(=O)[C@H](Cc3ccc(O)cc3)NC(=O)[C@H](CC(N)=O)NC(=O)CSC[C@@H](C(=O)N[C@@H](C)C(N)=O)NC(=O)[C@H]([C@@H](C)O)NC(=O)[C@H](C(C)C)NC(=O)[C@H](CC3CCCCC3)NC(=O)[C@H](CCN)NC(=O)[C@H](Cc3ccccc3)N(C)C(=O)[C@H](CCCN)NC(=O)[C@H](CCC(=O)O)NC(=O)[C@H](Cc3ccc(-c4ccccc4)cc3)NC(=O)C(C(C)C)NC2=O)c1 (stereo partly drawn) [Example 1447] ({CH2CO}-NYD[Phe(3-Me)][ξV][Bip]E[Orn][NMeF][Dab][Cha]VTCA-NH2; thioether N-14) | 30 |
| CC(C)C[C@@H]1NC(=O)[C@H](Cc2c[nH]c3ccccc23)NC(=O)[C@H](CC(=O)O)NC(=O)[C@H](Cc2ccc(C(=O)O)cc2)NC(=O)[C@H](Cc2ccncc2)NC(=O)CSC[C@@H](C(=O)N[C@@H](CCN)C(N)=O)NC(=O)[C@H](CO)NC(=O)[C@H](C(C)(C)O)NC(=O)[C@H](CC2CCCCC2)NC(=O)[C@H](CCN)NC(=O)[C@H]2CCCCN2C(=O)[C@H]2CCCN2C(=O)[C@H](C(C)C)NC(=O)[C@H](Cc2ccc(-c3ccccc3)cc2)NC1=O [Example 1189] ({CH2CO}-[4Pal][Phe(4-COOH)]DWL[Bip]V[dP][dPip][Dab][Cha][Val(3-OH)]SC[Dab]-NH2; thioether N-14) | 70 |
| CC(C)C[C@@H]1NC(=O)[C@H](CCCNC(=N)N)NC(=O)[C@H](Cc2ccccc2)N(C)C(=O)[C@H](C)N(C)C(=O)[C@H](CCCNC(=N)N)NC(=O)[C@H](Cc2ccc(-c3ccccc3)cc2)NC(=O)[C@H](C(C)C)NC(=O)[C@H](Cc2c[nH]c3ccccc23)NC(=O)[C@H](CC(=O)O)NC(=O)[C@H](Cc2ccc(O)cc2)NC(=O)[C@H](CCCCN)NC(=O)CSC[C@@H](C(=O)NCC(N)=O)NC(=O)[C@H](CO)NC(=O)[C@H](C(C)C)NC1=O [Example 1211] ({CH2CO}-KYDWV[Bip]R[NMeA][NMeF]RLVSCG-NH2; thioether N-14) | 650 |
| CC(C)C[C@@H]1NC(=O)[C@H](CCCNC(=N)N)NC(=O)[C@H](Cc2ccccc2)N(C)C(=O)[C@H](C)N(C)C(=O)[C@H](CCCNC(=N)N)NC(=O)[C@H](Cc2ccc(-c3ccccc3)cc2)NC(=O)[C@H](C(C)C)NC(=O)[C@H](Cc2c[nH]c3ccccc23)NC(=O)[C@H](CC(=O)O)NC(=O)[C@H](Cc2ccc(O)cc2)NC(=O)[C@H](Cc2cnc[nH]2)NC(=O)CSC[C@@H](C(=O)N[C@@H](C)C(N)=O)NC(=O)[C@H](CO)NC(=O)[C@H](C(C)C)NC1=O [Example 1302] ({CH2CO}-HYDWV[Bip]R[NMeA][NMeF]RLVSCA-NH2; thioether N-14) | 350 |
| CC(C)C[C@@H]1NC(=O)[C@H](CCCNC(=N)N)NC(=O)[C@H](Cc2ccccc2)N(C)C(=O)[C@H](C)N(C)C(=O)[C@H](CCCNC(=N)N)NC(=O)[C@H](Cc2ccc(-c3ccccc3)cc2)NC(=O)[C@H](C(C)C)NC(=O)[C@H](Cc2c[nH]c3ccccc23)NC(=O)[C@H](CC(=O)O)NC(=O)[C@H](Cc2ccc(O)cc2)NC(=O)[C@H](Cc2ccccc2)NC(=O)CSC[C@@H](C(=O)N[C@@H](CO)C(N)=O)NC(=O)[C@H](CO)NC(=O)[C@H](C(C)C)NC1=O [Example 1083] ({CH2CO}-FYDWV[Bip]R[NMeA][NMeF]RLVSCS-NH2; thioether N-14) | 240 |
